According to article PMC11876601 (Molecular Systems Biology, 2025):
Where two headings read alike, the source gives them in different places.

Legend:
MAP3K6 [1] = system: MAP3K6; parameters: method as in Klaeger et al. (2017); conditions: lysate 4 cell line mix (Colo205, K-562, MV-4-11, and SK-N-BE(2)), Kinobeads y, ref Klaeger et al. (2017); cited from earlier work
NTRK1 = system: NTRK1; parameters: method as in Klaeger et al. (2017); conditions: lysate 4 cell line mix (Colo205, K-562, MV-4-11, and SK-N-BE(2)), Kinobeads y, ref Klaeger et al. (2017); cited from earlier work
PRKAB2 = system: PRKAB2; parameters: method as in Klaeger et al. (2017); conditions: lysate 4 cell line mix (Colo205, K-562, MV-4-11, and SK-N-BE(2)), Kinobeads y, ref Klaeger et al. (2017); cited from earlier work
MOB1A;MOB1B = system: MOB1A;MOB1B; parameters: method as in Klaeger et al. (2017); conditions: 4 cell line mix lysate, Kinobeads y, ref Klaeger et al. (2017); cited from earlier work
CSNK2A2 = conditions: CSNK2A2, 5 cell line mix lysate, Kinobeads ε, ref Reinecke et al. (2023), cited from earlier work
CSNK2A1;CSNK2A3 = conditions: CSNK2A1;CSNK2A3, 5 cell line mix lysate, Kinobeads ε, ref Reinecke et al. (2023), cited from earlier work
IKBKE = conditions: 5 cell line mix lysate, Kinobeads ε, ref Reinecke et al. (2023), cited from earlier work
ABL1 = conditions: ABL1, 5 cell line mix lysate, Kinobeads ε, ref Reinecke et al. (2023), cited from earlier work
CAMKK2 = system: CAMKK2; parameters: method as in Reinecke et al. (2023); conditions: CAMKK2, 5 cell line mix lysate, Kinobeads ε, ref Reinecke et al. (2023), cited from earlier work
FGFR1 = system: FGFR1; parameters: method as in Reinecke et al. (2023); conditions: FGFR1, 5 cell line mix lysate, Kinobeads ε, ref Reinecke et al. (2023), cited from earlier work
PRKAG2 = system: PRKAG2; parameters: method as in Reinecke et al. (2023); conditions: PRKAG2, 5 cell line mix lysate, Kinobeads ε, ref Reinecke et al. (2023), cited from earlier work
YES1 = system: YES1; parameters: method as in Reinecke et al. (2023); conditions: YES1, 5 cell line mix lysate, Kinobeads ε, ref Reinecke et al. (2023), cited from earlier work
SLK = molecular target: SLK; parameters: method as in Reinecke et al. (2023); conditions: 5 cell line mix lysate, Kinobeads ε, ref Reinecke et al. (2023), cited from earlier work
MAP3K12 = system: MAP3K12; parameters: method as in Reinecke et al. (2023); conditions: MAP3K12, 5 cell line mix lysate, Kinobeads ε, ref Reinecke et al. (2023), cited from earlier work
MAP3K6 [2] = system: MAP3K6; parameters: method as in Reinecke et al. (2023); conditions: MAP3K6, 5 cell line mix lysate, Kinobeads ε, ref Reinecke et al. (2023), cited from earlier work
MAPK7 = system: MAPK7; parameters: method as in Reinecke et al. (2023); conditions: MAPK7, 5 cell line mix lysate, Kinobeads ε, ref Reinecke et al. (2023), cited from earlier work
MAPK8 = system: MAPK8; parameters: method as in Reinecke et al. (2023); conditions: MAPK8, 5 cell line mix lysate, Kinobeads ε, ref Reinecke et al. (2023), cited from earlier work
[3] = system: protein expression in AsPC-1 cells; assay: Time-dependent protein expression analysis (1 µM GEM or 1 µM ATRi, 15 min-24 h); assay type: cell-based, human; conditions: GEM
Experimental: Cell culture medium was replaced 24 h after seeding. […] For time point 0, AsPC-1 cells were treated with a vehicle and lysed immediately. The final DMSO concentration in all experiments was 0.2%.
LC-MS/MS measurement of non-enriched, TMT-labeled peptides from temporal drug perturbation was carried out on an Orbitrap Fusion Lumos Tribrid instrument (Thermo Scientific) coupled to a micro-flow LC system built by combining a modified Vanquish pump and the autosampler of the Dionex UltiMate 3000 nano HPLC System (Thermo Scientific). Dried peptides were reconstituted in 0.1% formic acid and loaded directly onto an Acclaim PepMap 100 C18 column (2 μm particle size, 1 mm × 150 mm, Thermo Scientific) heated at 55 °C. […] Flow rates of sheath, aux, and sweep gas were kept at 32, 5, and 0, respectively. […] The cycle time between MS1 scans was 1.2 s, with a dynamic exclusion duration of 50 s.
Peptide and protein identification and quantification of time-series raw data was performed with MaxQuant (v2.1.3.0) using the same sequence information as above, with N-terminal acetylation and oxidized methionine as variable modifications and cysteine carbamidomethylation as fixed modification. All other search parameters were set as default. The resulting proteingroups.txt file was filtered to remove potential contaminants and reversed hits. Corrected TMT reporter channel intensities were median-centered, and ratios were calculated between treatments and their respective time-point controls (Appendix Table S6). Proteins were considered conversely regulated if absolute log2 fold change > 2 by at least one drug and oppositely affected by both drugs (up/down) at 24 h.

In the case of `C[C@]12O[C@H](C[C@]1(O)CO)n1c3ccccc3c3c4c(c5c6ccccc6n2c5c31)CNC4=O` [Lestaurtinib], the EC50 (MAP3K6 [1]) is listed as 458 nM, the EC50 (NTRK1) is listed as 795 nM and the EC50 (PRKAB2) is listed as 3520 nM. The EC50 (MOB1A;MOB1B) was 34 nM.
In the case of `COc1cc(N2CCC(N3CCN(C)CC3)CC2)ccc1Nc1ncc(Cl)c(Nc2ccccc2P(C)(C)=O)n1` [Brigatinib], the EC50 (CSNK2A2) is given as 720 nM, the pKDapp (CSNK2A2) is given as 6.16 and the Kd (CSNK2A2; read-out: KDapp) is given as 693 nM. For the same molecule, the EC50 (CSNK2A1;CSNK2A3) was 331 nM, the pKDapp (CSNK2A1;CSNK2A3) was 6.48 and the Kd (CSNK2A1;CSNK2A3; read-out: KDapp) was 331 nM. For the same molecule, the Kd (IKBKE; read-out: KDapp) was 2520 nM, the EC50 (IKBKE) was 4060 nM and the pKDapp (IKBKE) was 5.60. For the same molecule, the EC50 (ABL1) was 3460 nM, the pKDapp (ABL1) was 5.72 and the Kd (ABL1; read-out: KDapp) was 1890 nM. For the same molecule, the EC50 (CAMKK2) was 60.9 nM, the pKDapp (CAMKK2) was 7.39 and the Kd (CAMKK2; read-out: KDapp) was 40.4 nM. For the same molecule, the EC50 (FGFR1) was 419 nM, the pKDapp (FGFR1) was 6.51 and the Kd (FGFR1; read-out: KDapp) was 308 nM. For the same molecule, the EC50 (PRKAG2) was 510 nM, the pKDapp (PRKAG2) was 6.48 and the Kd (PRKAG2; read-out: KDapp) was 329 nM. The EC50 (YES1) was 821 nM, the pKDapp (YES1) was 6.47 and the Kd (YES1; read-out: KDapp) was 339 nM. For the same molecule, the Kd (SLK; read-out: KDapp) was 466 nM, the EC50 (SLK) was 523 nM and the pKDapp (SLK) was 6.33. For the same molecule, the EC50 (MAP3K12) was 1040 nM, the pKDapp (MAP3K12) was 6.25 and the Kd (MAP3K12; read-out: KDapp) was 563 nM. The EC50 (MAP3K6 [2]) was 844 nM, the pKDapp (MAP3K6 [2]) was 6.16 and the Kd (MAP3K6 [2]; read-out: KDapp) was 697 nM. For the same molecule, the EC50 (MAPK7) was 1060 nM, the pKDapp (MAPK7) was 6.08 and the Kd (MAPK7; read-out: KDapp) was 828 nM. For the same molecule, the EC50 (MAPK8) was 2200 nM, the pKDapp (MAPK8) was 5.85 and the Kd (MAPK8; read-out: KDapp) was 1420 nM.
With `Nc1ccn([C@@H]2O[C@H](CO)[C@@H](O)C2(F)F)c(=O)n1` [GEM, Gemcitabine] the “Regulation_24h, CLN6 protein expression” value ([3]; protein CLN6) was “up”, the “Regulation_24h, E2F6 protein expression” value ([3]; protein E2F6) was “up” and the “Regulation_24h, HELZ2 protein expression” value ([3]; protein HELZ2) was “up”. For the same molecule, the “Regulation_24h, PRKACA protein expression” value ([3]; protein PRKACA) was “up” and the “Regulation_24h, RASSF10 protein expression” value ([3]; protein RASSF10) was “up”.
